Data taken from patent publication US9028856B2, “Synergistic pesticide compositions” (priority 2008, dated 2015).
Read-outs that look alike come from different tables or passages of the source. Marks after values point to notes of the source that are not given here.

Key:
Format in all cases: in vivo
[1] = test system: bedbug (Cimex lectularius), susceptible strain; experiment: Contact efficacy against bedbugs on filter papers in glass dishes
Experimental: (§1) Adult Cimex lectularius, susceptible strain, were used. A solution of the active ingredient in acetone was prepared. In the same mode a complete […]. All these works were done under drawing off conditions. After evaporation of the acetone (30′) the dishes were closed by a glass lid and transferred into the test room.
(§2) One day later ten bedbugs, anaesthetized with CO2, were counted into each dish. At regular intervals, knock down was recorded (cumulatively).
(§3) The same methodology was used as was used in Example 105.

[2] = test system: bait averse/resistant German cockroach (IHOP strain), Blattella germanica; experiment: Knockdown/mortality of male cockroaches under continuous exposure on treated glazed tile; settings: Table 28, aqueous deltamethrin/adjuvant, IHOP strain
Experimental: Treatments were allowed to dry overnight. […] Treatments were replicated a minimum of three times. Evaluations for cockroach knockdown/mortality were made at various intervals for 1 hour and at 24 hours after exposure.
Treatments were allowed to dry overnight. […] Evaluations for cockroach knockdown/mortality were made at various intervals and at 60 minutes after exposure.
Treatments were allowed to dry overnight. […] Treatments were replicated a minimum of three times.

[3] = test system: bedbug (Cimex lectularius); experiment: Contact efficacy against bedbugs on various surfaces (wood, PVC, wallpaper, mattress, glass); settings: for efficacy on wood, PVC, wallpaper, mattress and glass (summary in words): Example 106, imidacloprid 0.008% or 0.0016% (30 and 6 mg a.i./m^2)
Experimental: as §1, §2, §3

[4] = test system: Blattella germanica, susceptible strain; experiment: Contact efficacy against cockroaches on glazed tiles (acetone solutions); settings: mean of three replicates; for mortality at 60 mg/m2: imidacloprid 0.1%, 60 mg/m^2, glazed tile; for mortality at 310 mg/m2: imidacloprid 0.5%, 310 mg/m^2, glazed tile; for mortality at 620 mg/m2: imidacloprid 1%, 620 mg/m^2, glazed tile
Experimental: Male Blattella germanica, susceptible strain, were used. A solution of the active ingredient in acetone pipetted onto the corresponding tile on an area of 12.5 cm×12.5 cm.
One day later, a glass ring (diameter 9.5 cm, height 5.5 cm) inner wall treated with talcum was placed on the tile and five male German cockroaches were introduced. Knock down and mortality, respectively, were evaluated after 30′, 1 h, 3 h and 1 d. A water soaked cotton pad was added after 3 hours.
Each trial consisted of three replicates of which the mean values are calculated.

[5] = 0.0000128% Deltamethrin in acetone, first test
[6] = 0.0000128% Deltamethrin in acetone, second test
[7] = 0.000064% Deltamethrin in acetone, first test
[8] = 0.000064% Deltamethrin in acetone, second test
[9] = 0.00032% imidacloprid (1 mg/m^2) in acetone, filter papers, Table 105
[10] = 0.0016% Imidacloprid in acetone, first test
[11] = 0.0016% Imidacloprid in acetone, second test
[12] = 0.0016% imidacloprid (6 mg/m^2) in acetone, filter papers, Table 105
[13] = 0.008% Imidacloprid in acetone, first test
[14] = 0.008% Imidacloprid in acetone, second test
[15] = Glass, 0.008% imidacloprid (30 mg/m^2) in acetone
[16] = Mattress, 0.0016% imidacloprid (6 mg/m^2) in acetone
[17] = Mattress, 0.008% imidacloprid (30 mg/m^2) in acetone
[18] = PVC, 0.0016% imidacloprid (6 mg/m^2) in acetone
[19] = PVC, 0.008% imidacloprid (30 mg/m^2) in acetone
[20] = Wallpaper, 0.0016% imidacloprid (6 mg/m^2) in acetone
[21] = Wallpaper, 0.008% imidacloprid (30 mg/m^2) in acetone
[22] = Wood, 0.0016% imidacloprid (6 mg/m^2) in acetone
[23] = Wood, 0.008% imidacloprid (30 mg/m^2) in acetone
[24] = 0.5 h, read-out: Average % knockdown & mortality after 30 min
[25] = 1 h, read-out: Average % knockdown & mortality after 60 min
[26] = 3 h, read-out: Average % knockdown & mortality after 3 hr
[27] = 24 h, read-out: Average % knockdown & mortality after 24 hr

## CC1(C)[C@H](C(=O)O[C@H](C#N)c2cccc(Oc3ccccc3)c2)[C@@H]1C=C(Br)Br [deltamethrin]
[1]; [5]
  % knock down or moribund after 1 h: 0%
  % knock down or moribund after 2 h: 0%
  % knock down or moribund after 4 h: 0%
  % knock down or moribund after 6 h: 0%
  % knock down or moribund after 1 d: 20%
  % knock down or moribund after 2 d: 20%
  % knock down or moribund after 6 d: 20%
[1]; [6]
  % knock down or moribund after 1 h: 0%
  % knock down or moribund after 2 h: 0%
  % knock down or moribund after 4 h: 0%
  % knock down or moribund after 6 h: 0%
  % knock down or moribund after 1 d: 10%
  % knock down or moribund after 2 d: 10%
  % knock down or moribund after 6 d: 40%
[1]; [7]
  % knock down or moribund after 1 h: 20%
  % knock down or moribund after 2 h: 20%
  % knock down or moribund after 4 h: 70%
  % knock down or moribund after 6 h: 70%
  % knock down or moribund after 1 d: 70%
  % knock down or moribund after 2 d: 80%
  % knock down or moribund after 6 d: 100%
[1]; [8]
  % knock down or moribund after 1 h: 0%
  % knock down or moribund after 2 h: 40%
  % knock down or moribund after 4 h: 40%
  % knock down or moribund after 6 h: 40%
  % knock down or moribund after 1 d: 40%
  % knock down or moribund after 2 d: 60%
  % knock down or moribund after 6 d: 60%

## CC1(C)[C@H](C(=O)O[C@H](C#N)c2cccc(Oc3ccccc3)c2)[C@@H]1C=C(Br)Br [deltamethrin (1%)]
[2]; 10 min
  Average % Mortality after 10 min: 20%
[2]; 30 min
  Average % Mortality after 30 min: 93%
[2]; 60 min
  Average % Mortality after 60 min: 100%
[2]; 24 hr
  Average % Mortality after 24 hr: 100%

## O=[N+]([O-])NC1=NCCN1Cc1ccc(Cl)nc1 [imidacloprid]
[1]; [9]
  % knock down or moribund after 1 h: 0%
  % knock down or moribund after 2 h: 0%
  % knock down or moribund after 4 h: 0%
  % knock down or moribund after 6 h: 0%
  % knock down or moribund after 1 d: 0%
  % knock down or moribund after 2 d: 0%
  % knock down or moribund after 6 d: 0%
[1]; [10]
  % knock down or moribund after 1 h: 0%
  % knock down or moribund after 2 h: 0%
  % knock down or moribund after 4 h: 0%
  % knock down or moribund after 6 h: 10%
  % knock down or moribund after 1 d: 20%
  % knock down or moribund after 2 d: 20%
  % knock down or moribund after 6 d: 40%
[1]; [11]
  % knock down or moribund after 1 h: 0%
  % knock down or moribund after 2 h: 0%
  % knock down or moribund after 4 h: 0%
  % knock down or moribund after 6 h: 0%
  % knock down or moribund after 1 d: 0%
  % knock down or moribund after 2 d: 0%
  % knock down or moribund after 6 d: 0%
[1]; [12]
  % knock down or moribund after 1 h: 0%
  % knock down or moribund after 2 h: 0%
  % knock down or moribund after 4 h: 0%
  % knock down or moribund after 6 h: 0%
  % knock down or moribund after 1 d: 0%
  % knock down or moribund after 2 d: 0%
  % knock down or moribund after 6 d: 0%
[1]; [13]
  % knock down or moribund after 1 h: 0%
  % knock down or moribund after 2 h: 0%
  % knock down or moribund after 4 h: 0%
  % knock down or moribund after 6 h: 20%
  % knock down or moribund after 1 d: 30%
  % knock down or moribund after 2 d: 40%
  % knock down or moribund after 6 d: 80%
[1]; [14]
  % knock down or moribund after 1 h: 0%
  % knock down or moribund after 2 h: 0%
  % knock down or moribund after 4 h: 0%
  % knock down or moribund after 6 h: 0%
  % knock down or moribund after 1 d: 0%
  % knock down or moribund after 2 d: 0%
  % knock down or moribund after 6 d: 10%
[1]; Example 106, filter paper, concentrations in the label
  efficacy after 6 days: 0%
[3]
  efficacy on wood, PVC, wallpaper, mattress and glass (summary in words): No efficacy was found on wood, PVC, wallpaper and mattress
[3]; listed as 0.008% imidacloprid
  efficacy on wood, PVC, wallpaper, mattress and glass (summary in words): On glass, 0.008% imidacloprid alone acted relatively fast and had killed all bed bugs within one day
[3]; [15]
  % knock down or moribund after 1 h: 0%
  % knock down or moribund after 2 h: 100* %
  % knock down or moribund after 4 h: 85%
  % knock down or moribund after 6 h: 90%
  % knock down or moribund after 1 d: 100%
  % knock down or moribund after 2 d: 100%
  % knock down or moribund after 6 d: 100%
[3]; [16]
  % knock down or moribund after 1 h: 0%
  % knock down or moribund after 2 h: 0%
  % knock down or moribund after 4 h: 0%
  % knock down or moribund after 6 h: 0%
  % knock down or moribund after 1 d: 0%
  % knock down or moribund after 2 d: 0%
  % knock down or moribund after 6 d: 0%
[3]; [17]
  % knock down or moribund after 1 h: 0%
  % knock down or moribund after 2 h: 0%
  % knock down or moribund after 4 h: 0%
  % knock down or moribund after 6 h: 0%
  % knock down or moribund after 1 d: 0%
  % knock down or moribund after 2 d: 0%
  % knock down or moribund after 6 d: 0%
[3]; [18]
  % knock down or moribund after 1 h: 0%
  % knock down or moribund after 2 h: 0%
  % knock down or moribund after 4 h: 0%
  % knock down or moribund after 6 h: 0%
  % knock down or moribund after 1 d: 0%
  % knock down or moribund after 2 d: 0%
  % knock down or moribund after 6 d: 20%
[3]; [19]
  % knock down or moribund after 1 h: 0%
  % knock down or moribund after 2 h: 0%
  % knock down or moribund after 4 h: 0%
  % knock down or moribund after 6 h: 0%
  % knock down or moribund after 1 d: 0%
  % knock down or moribund after 2 d: 0%
  % knock down or moribund after 6 d: 40%
[3]; [20]
  % knock down or moribund after 1 h: 0%
  % knock down or moribund after 2 h: 0%
  % knock down or moribund after 4 h: 0%
  % knock down or moribund after 6 h: 0%
  % knock down or moribund after 1 d: 0%
  % knock down or moribund after 2 d: 0%
  % knock down or moribund after 6 d: 0%
[3]; [21]
  % knock down or moribund after 1 h: 0%
  % knock down or moribund after 2 h: 0%
  % knock down or moribund after 4 h: 0%
  % knock down or moribund after 6 h: 0%
  % knock down or moribund after 1 d: 0%
  % knock down or moribund after 2 d: 0%
  % knock down or moribund after 6 d: 0%
[3]; [22]
  % knock down or moribund after 1 h: 0%
  % knock down or moribund after 2 h: 0%
  % knock down or moribund after 4 h: 0%
  % knock down or moribund after 6 h: 0%
  % knock down or moribund after 1 d: 0%
  % knock down or moribund after 2 d: 0%
  % knock down or moribund after 6 d: 10%
[3]; [23]
  % knock down or moribund after 1 h: 0%
  % knock down or moribund after 2 h: 0%
  % knock down or moribund after 4 h: 0%
  % knock down or moribund after 6 h: 0%
  % knock down or moribund after 1 d: 0%
  % knock down or moribund after 2 d: 0%
  % knock down or moribund after 6 d: 0%
[4]; [24]
  mortality at 60 mg/m2: 0%
  mortality at 310 mg/m2: 0%
  mortality at 620 mg/m2: 0%
[4]; [25]
  mortality at 60 mg/m2: 0%
  mortality at 310 mg/m2: 0%
  mortality at 620 mg/m2: 0%
[4]; [26]
  mortality at 60 mg/m2: 20%
  mortality at 310 mg/m2: 0%
  mortality at 620 mg/m2: 13%
[4]; [27]
  mortality at 60 mg/m2: 40%
  mortality at 310 mg/m2: 0%
  mortality at 620 mg/m2: 40%
